Read-outs that look alike come from different tables or passages of the source.
Columns and labels:
[1] = system: Leptosphaeria nodorum (LEPTNO); assay: In vitro fungitoxicity of hydrazones with and without copper towards Leptosphaeria nodorum (Example 26); type: cell-based; details: compound 0.05 μg/mL, 72 h at 25° C.; for inhibition of growth at 0.05 µg/mL: Parastagonospora nodorum, 72 h, copper-minus medium, read-out: LEPTNO % Inhn. Minus Copper Observed; for LEPTNO % Inhn. Plus Copper Observed: copper-plus medium (CuCl2.2H2O)
Phytophthora infestans [2] = type: in vivo, Phytophthora infestans on tomato; details: hydrazone 50 ppm + 50 μM CuCl2.2H2O, applied 24 h before inoculation, assessed 7 days after inoculation, tomato
Phytophthora capsici = assay: In vitro fungitoxicity of hydrazones with and without copper towards Phytophthora capsici (Example 28, Table 3); type: cell-based; details: 48 h; for % Inhn Plus copper Observed: copper-plus AS medium (CuCl2, 50 μM); for inhibition of growth at 0.05 µg/mL / inhibition of growth at 0.039 µg/mL: Phytophthora capsici, copper-minus AS medium, read-out: % Inhn Minus copper Observed
Ustilago maydis = assay: In vitro fungitoxicity of hydrazones with and without copper towards Ustilago maydis (Example 29, Table 4); type: cell-based; details: 1 μg/mL, 48 h; for % Inhn. Plus copper Observed: copper-plus medium (CuCl2, 10 μM); for inhibition of growth at 1 µg/mL: Mycosarcoma maydis, copper-minus medium, read-out: % Inhn. Minus copper Observed
[3] = system: Septoria tritici isolate USA-184; assay: In vitro fungitoxicity of hydrazones with and without copper towards Septoria tritici (Example 30, Table 5); type: cell-based; details: Zymoseptoria tritici, 0.05 μg/mL
Phytophthora infestans [4] = type: in vivo, Phytophthora infestans on tomato (Outdoor Girl); details: no hydrazone
[5] = Colby formula, CuCl2, read-out: % Inhibition Plus copper Predicted
[6] = copper-minus medium, 90 h, read-out: % Inhibition Minus copper Observed
[7] = copper-plus medium CuCl2, 90 h, read-out: % Inhibition Plus copper Observed

Compound | inhibition of growth at 0.05 µg/mL [1] [%] | LEPTNO % Inhn. Plus Copper Observed [1] [%] | TLB % Control (Phytophthora infestans [2]) [%] | % Inhn Plus copper Observed (Phytophthora capsici; 0.050 μg/mL) [%] | inhibition of growth at 0.05 µg/mL (Phytophthora capsici; 0.050 μg/mL) [%] | % Inhn. Plus copper Observed (Ustilago maydis) [%] | inhibition of growth at 1 µg/mL (Ustilago maydis) [%] | inhibition at 0.05 µg/mL [3, 5] [%] | inhibition at 0.05 µg/mL [3, 6] [%] | inhibition at 0.05 µg/mL [3, 7] [%] | melting point [°C] | % Inhn Plus copper Observed (Phytophthora capsici; 0.039 μg/mL) [%] | inhibition of growth at 0.039 µg/mL (Phytophthora capsici; 0.039 μg/mL) [%] | % Control of Tomato Late Blight (Phytophthora infestans [4]; CuSO4 10 μM alone) [%] | % Control of Tomato Late Blight (Phytophthora infestans [4]; CuSO4 50 μM alone) [%] | % Control of Tomato Late Blight (Phytophthora infestans [4]; CuSO4 200 μM alone) [%] | % Control of Tomato Late Blight (Phytophthora infestans [4]; CuSO4 400 μM alone) [%] | % Control of Tomato Late Blight (Phytophthora infestans [4]; CuSO4 800 μM alone) [%]
Cc1ccccc1C(=O)N/N=C/c1cc(Cl)cc(Br)c1O [Example 162] | 0 | 96.9 | 94.0 | 91.6 | 5.2 | 96.4 | 8.8 | 36.3 | 36.3 | 97.1 | – | – | – | – | – | – | – | –
O=C(N/N=C/c1cc(Br)cc(Br)c1O)c1ccccc1 [Example 121] | 0 | 98.3 | 88.1 | 90.4 | 0 | 96.9 | 0 | 9.7 | 9.7 | 96.5 | – | – | – | – | – | – | – | –
O=C(N/N=C/c1cc(Br)cc(Br)c1O)c1cc(I)ccc1Br [Example 223] | 26.9 | 97.2 | 54.0 | 51.3 | 2.5 | – | – | – | – | – | 215 to 216 | – | – | – | – | – | – | –
O=C(N/N=C/c1ccccc1O)c1cc(Cl)ccc1Br [Example 218] | 0 | 92.5 | 70.9 | 93.3 | 10.7 | – | – | – | – | – | 222 to 225 | – | – | – | – | – | – | –
O=C(N/N=C/c1cc(Cl)cc(Cl)c1O)c1ccccc1C(F)(F)F [Example 56] | 2.1 | 96.3 | 81.3 | – | – | – | – | – | – | – | 106 to 111 | 94.1 | 57.5 | – | – | – | – | –
O=C(N/N=C/c1ccccc1O)c1cc(I)ccc1Cl [Example 224] | 0 | 91.0 | 67.3 | 93.3 | 6.2 | – | – | – | – | – | 222 to 226 | – | – | – | – | – | – | –
O=C(N/N=C/c1cc(Br)cc(Br)c1O)c1cc(I)ccc1Cl [Example 226] | 0 | 94.5 | 71.0 | 62.1 | 2.3 | – | – | – | – | – | 205 to 212 | – | – | – | – | – | – | –
O.O.O.O.O.O=S(=O)([O-])[O-].[Cu+2] [CuSO4, CuSO4.5H2O, reference compound] | – | – | – | – | – | – | – | – | – | – | – | – | – | 1.7 | 4.8 | 49.7 | 76.0 | 82.9
O=C(N/N=C/c1cc(Cl)cc(Cl)c1O)c1cc(I)ccc1Br [Example 222] | 0 | 94.5 | 67.3 | 76.8 | 11.3 | – | – | – | – | – | 201 to 219 | – | – | – | – | – | – | –
COc1cccc(C(=O)N/N=C/c2cc(Cl)cc(Cl)c2O)c1C [Example 99] | 8.9 | 94.5 | 50.3 | – | – | – | – | – | – | – | 192 to 194 | 94.0 | 23.6 | – | – | – | – | –
Cc1ccc(C(=O)N/N=C/c2ccccc2O)c(Br)c1 [Example 227] | 5 | 95.0 | 52.7 | 93.4 | 1.7 | – | – | – | – | – | 86 to 122 | – | – | – | – | – | – | –

— patent publication US20120010075A1 (priority 2009, published 2012)
